Laboratory results taken from US20240381870A1 (priority 2024, published 2024).

Assays:
[1] = system: Fusarium pseudogramineaqum; assay type: cell-based
[2] = system: Fusarium graminearum; assay type: cell-based; conditions: mycelial growth inhibition, PDA, 25° C.
[3] = system: wheat scab; assay type: in vivo; conditions: in words; field experiments of both sites (Tables 3 and 4)

| SMILES | EC50 ppm [1] | EC50 ppm [2] | control effect on wheat scab [3] |
| --- | --- | --- | --- |
| CCCN(CCOc1c(Cl)cc(Cl)cc1Cl)C(=O)n1ccnc1 [Prochloraz(P), Prochloraz] | 0.2311 ppm | 0.2663 ppm | significant control effect |
| O=C(NC1CCC1c1ccc(Cl)cc1Cl)c1cccnc1C(F)(F)F (stereo not drawn) [Cyclobutrifluram(C), Cyclobutrifluram] | 0.1276 ppm | 0.3744 ppm | significant control effect |
